Test results: patent US8895561B2, “Compounds and methods for treating candidiasis and aspergillus infections” (Cellceutix Corporation, priority 2012, dated 2014)
pEC50, pIC50: −log10 of the molar value. In brackets after ≈: the same amount, converted by molar mass. Read-outs that look alike come from different tables or passages of the source. One block for each compound: values may come before it.

Columns and labels:
[1] = Cytotoxicity, MTS viability assay; assay type: cell-based, human; conditions: Table 6
Experimental: (§1) Candida IC50s were determined by OD600 and fluorescence from vegetative cells and by MTS viability assay in the hyphal state. MICs were determined using a broth microdilution assay under standard CLSI conditions Bacteria strains: E. coli 25922 (EC), S. aureus 27660 (SA), E. faecalis 29212 (EF), P. aeruginosa 10145 (PA), and K. pneumoniae 13883 (KP). Cytotoxicity (EC50) was determined against mouse 3T3 fibroblasts, human transformed liver HepG2 cells, and human oral keratinocyte cell line, OKF6/TERT using an MTS viability assay. Candida IC50s<10 μg/mL, MICs<5 μg/mL and cytotoxicity EC50s>100 μM are indicated in green. MICs>5 μg/mL and cytotoxicity EC50s<100 μM are indicated in red.
(§2) Candida IC50s (CA) were determined by OD600 and fluorescence from vegetative cells. MICs were determined using a broth microdilution assay under standard CLSI conditions Bacteria strains: E. coli 25922 (EC), S. aureus 27660 (SA), E. faecalis 29212 (EF), P. aeruginosa 10145 (PA), and K. pneumoniae 13883 (KP). Cytotoxicity (EC50) was determined against mouse 3T3 fibroblasts and human transformed liver HepG2 cells using an MTS viability assay.
(§3) CLSI conditions Bacteria strains: clinical isolates; yeast strains: C. dubliniensis (NCPF3949), C. glabrata (ATCC 90030), C. krusei (ATCC 6258), C. parapsilosis (ATCC 22019), and C. tropicalis (ATCC 750). Cytotoxicity (EC50) was determined against mouse 3T3 fibroblasts, human transformed liver HepG2 cells, and human oral keratinocyte cell line, OKF6/TERT using an MTS viability assay.

A. flavus (NRRL3357) = test: Anti-Aspergillus screen, CLSI M38-A, visual inhibition of growth; assay type: cell-based; conditions: screening concentration 10 μM, 24-48 hours
Experimental: (§4) The in vitro efficacy of a library of compounds was assessed for antifungal activity against A. niger (AN1), A. fumigatus ([…]) and A. flavus (NRRL3357) and compared to that of Itraconazole. For a subset of compounds selected based upon efficacy in the screening study a full MIC profile was conducted. Efficacy of test articles was determined in RPMI 1640 broth with MOPS buffered to pH7.2 in accordance with CLSI guidelines M38-A for Antifungal Susceptibility Testing of Filamentous Fungi. The method was modified by using flat well plates to allow microscopic identification of growth. The final screening concentration of each test article was 10 μM. Assay plates were incubated aerobically at 37° C. for 24-48 hours. Following incubation, plates were assessed visually (by eye and microscopically) for inhibition of growth. Inhibition was recorded at 50%, 80% and 100% inhibition compared to the positive control.

A. niger (AN1) = test: as above; assay type: cell-based; conditions: screening concentration 10 μM, 24-48 hours
Experimental: as §4

A. fumigatus (A1163) = test: as above; assay type: cell-based; conditions: screening concentration 10 μM, 24-48 hours
Experimental: as §4

C. albicans GDH2346 = test: Candida IC50, vegetative cells, by OD600 and fluorescence; assay type: cell-based; conditions: for IC50: Candida albicans, GDH2346
Experimental: as §1, with “red. Candida IC50s (CA) were determined by OD600 and fluorescence from vegetative cells. MICs were determined using a broth microdilution assay under standard CLSI conditions Bacteria strains: E. coli 25922 (EC), S. aureus 27660 (SA), E. faecalis 29212 (EF), P. aeruginosa 10145 (PA), and K. pneumoniae 13883 (KP). Cytotoxicity (EC50) was determined against mouse 3T3 fibroblasts and human transformed liver HepG2 cells using an MTS viability assay. For determination of anti-Candida IC50s, the method was modified by using RPMI/MOPS buffer pH 6.3 and by addition of FDGlu, a substrate for the yeast enzyme exoglucanase which is secreted during cell growth. This provides a fluorescent readout for cell growth which was used in addition to the traditional optical density measure of growth. OD600 and fluorescence were determined at 24 and 48 hours and the average of all 4 reads was used for the final IC50 determination.” for “red.”

P. aeruginosa 10145 = test: Bacterial MIC, broth microdilution, CLSI; assay type: cell-based
Experimental: as §1, with “red. Candida IC50s (CA) were determined by OD600 and fluorescence from vegetative cells. MICs were determined using a broth microdilution assay under standard CLSI conditions Bacteria strains: E. coli 25922 (EC), S. aureus 27660 (SA), E. faecalis 29212 (EF), P. aeruginosa 10145 (PA), and K. pneumoniae 13883 (KP). Cytotoxicity (EC50) was determined against mouse 3T3 fibroblasts and human transformed liver HepG2 cells using an MTS viability assay.” for “red.”

K. pneumoniae 13883 = test: Bacterial MIC, broth microdilution, CLSI; assay type: cell-based; conditions: Klebsiella pneumoniae
Experimental: as §1, with “red. Candida IC50s (CA) were determined by OD600 and fluorescence from vegetative cells. MICs were determined using a broth microdilution assay under standard CLSI conditions Bacteria strains: E. coli 25922 (EC), S. aureus 27660 (SA), E. faecalis 29212 (EF), P. aeruginosa 10145 (PA), and K. pneumoniae 13883 (KP). Cytotoxicity (EC50) was determined against mouse 3T3 fibroblasts and human transformed liver HepG2 cells using an MTS viability assay.” for “red.”

E. faecalis 29212 = test: Bacterial MIC, broth microdilution, CLSI; assay type: cell-based
Experimental: as §1, with “red. Candida IC50s (CA) were determined by OD600 and fluorescence from vegetative cells. MICs were determined using a broth microdilution assay under standard CLSI conditions Bacteria strains: E. coli 25922 (EC), S. aureus 27660 (SA), E. faecalis 29212 (EF), P. aeruginosa 10145 (PA), and K. pneumoniae 13883 (KP). Cytotoxicity (EC50) was determined against mouse 3T3 fibroblasts and human transformed liver HepG2 cells using an MTS viability assay.” for “red.”

E. coli 25922 = test: Bacterial MIC, broth microdilution, CLSI; assay type: cell-based
Experimental: as §1, with “red. Candida IC50s (CA) were determined by OD600 and fluorescence from vegetative cells. MICs were determined using a broth microdilution assay under standard CLSI conditions Bacteria strains: E. coli 25922 (EC), S. aureus 27660 (SA), E. faecalis 29212 (EF), P. aeruginosa 10145 (PA), and K. pneumoniae 13883 (KP). Cytotoxicity (EC50) was determined against mouse 3T3 fibroblasts and human transformed liver HepG2 cells using an MTS viability assay.” for “red.”

S. aureus 27660 = test: Bacterial MIC, broth microdilution, CLSI; assay type: cell-based
Experimental: as §1, with “red. Candida IC50s (CA) were determined by OD600 and fluorescence from vegetative cells. MICs were determined using a broth microdilution assay under standard CLSI conditions Bacteria strains: E. coli 25922 (EC), S. aureus 27660 (SA), E. faecalis 29212 (EF), P. aeruginosa 10145 (PA), and K. pneumoniae 13883 (KP). Cytotoxicity (EC50) was determined against mouse 3T3 fibroblasts and human transformed liver HepG2 cells using an MTS viability assay.” for “red.”

mouse 3T3 fibroblasts = test: Cytotoxicity, MTS viability assay; assay type: cell-based
Experimental: as §1, §2, §3

[2] = tested on: human transformed liver HepG2 cells; test: Cytotoxicity, MTS viability assay; assay type: cell-based
Experimental: as §1, §2, §3

[3] = tested on: human oral keratinocyte cell line, OKF6/TERT; test: Cytotoxicity, MTS viability assay; assay type: cell-based
Experimental: as §1, §3

[4] = tested on: C. albicans GDH2346 hyphal biofilm; test: Candida IC50 in the hyphal state / hyphal biofilm, MTS viability assay; assay type: cell-based; conditions: Candida albicans; hyphal state; read-out: IC50 Candida, Hyphal
Experimental: Candida IC50s were determined by OD600 and fluorescence from vegetative cells and by MTS viability assay in the hyphal state. MICs were determined using a broth microdilution assay under standard CLSI conditions Bacteria strains: E. coli 25922 (EC), S. aureus 27660 (SA), E. faecalis 29212 (EF), P. aeruginosa 10145 (PA), and K. pneumoniae 13883 (KP). Cytotoxicity (EC50) was determined against mouse 3T3 fibroblasts, human transformed liver HepG2 cells, and human oral keratinocyte cell line, OKF6/TERT using an MTS viability assay. Candida IC50s<10 μg/mL, MICs<5 μg/mL and cytotoxicity EC50s>100 μM are indicated in green. MICs>5 μg/mL and cytotoxicity EC50s<100 μM are indicated in red. To form the biofilm, yeast were grown in RPMI/MOPS, 0.4% sucrose pH7.4 media supplemented with 10% FBS in tissue culture-treated flat bottom 96 well plates for 48 hours. The filamentous yeast cultures were then vigorously washed to remove any non-filamentous, non-attached yeast. The remaining attached filamentous biofilm yeast were incubated in saline containing serially diluted compounds for 24 hours. The cultures were aspirated to remove compound, rinsed and overlayed with RPMI/MOPS, 0.4% sucrose pH7.4 media. Biofilm viability was measured using a cell proliferation assay (CellTiter96 Aqueous Kit from Promega) and IC50s were determined using Prism GraphPad software (nonlinear fit, Table 3).

[5] = human, HepG2 cells (transformed liver), read-out: Cytotoxicity EC50 Human HepG2
[6] = mouse, 3T3 fibroblasts, read-out: Cytotoxicity EC50 Mouse 3T3
[7] = Table 6, read-out: IC50 C. albicans

- IC50 (C. albicans GDH2346; [7]): 2 µg/mL (≈ 2.31 µM)
SMILES: COc1cc(SCCNC(=N)N)c(C(F)(F)F)cc1NC(=O)c1cc(C(=O)Nc2cc(C(F)(F)F)c(SCCNC(=N)N)cc2OC)nc(SCCNC(=N)N)n1 [Cmpd 183]
- pEC50 [1, 5]: ≤ 3.00
- pEC50 [1, 6]: 3.32
- inhibition at 10 µM (A. flavus (NRRL3357)): 100%
- inhibition at 10 µM (A. niger (AN1)): 100%
- inhibition at 10 µM (A. fumigatus (A1163)): 100%

- IC50 (C. albicans GDH2346; [7]): 3.1 µg/mL (≈ 4.49 µM)
SMILES: COc1ccc(CNC(=N)N)cc1NC(=O)c1cc(C(=O)Nc2cc(CNC(=N)N)ccc2OC)c(OCCC(C)C)cc1OCCC(C)C [Cmpd 184]
- pEC50 [1, 5]: 3.81
- pEC50 [1, 6]: ≤ 3.00
- inhibition at 10 µM (A. flavus (NRRL3357)): 100%
- inhibition at 10 µM (A. niger (AN1)): 100%
- inhibition at 10 µM (A. fumigatus (A1163)): 100%

- EC50 (P. aeruginosa 10145; Pseudomonas aeruginosa, P. aeruginosa 10145): > 50 µg/mL
- EC50 (K. pneumoniae 13883): > 50 µg/mL
- EC50 (E. faecalis 29212; Enterococcus faecalis, E. faecalis 29212): > 50 µg/mL
- EC50 (E. coli 25922; Escherichia coli, E. coli 25922): > 50 µg/mL
- EC50 (S. aureus 27660; Staphylococcus aureus, S. aureus 27660): > 50 µg/mL
- IC50 [4]: 7.5 µg/mL (≈ 13.4 µM)
- IC50 (C. albicans GDH2346; vegetative cells, read-out: IC50 Candida, Vegetative): 4.1 µg/mL (≈ 7.31 µM)
SMILES: NCCCOc1cccc(-n2cc(-c3ccc4ccc(-c5cn(-c6cccc(OCCCN)c6)nn5)cc4c3)nn2)c1 [Compound 138]
- pIC50 (mouse 3T3 fibroblasts; Mus musculus, NIH3T3, cytotoxicity): 3.39
- pIC50 ([2]; Homo sapiens, HepG2, cytotoxicity): 3.30
- pIC50 [3]: 3.31

- PA (MIC) (P. aeruginosa 10145): 6.25 µg/mL
- EF (MIC) (E. faecalis 29212): 3.13 µg/mL
- EC (MIC) (E. coli 25922): 0.78 µg/mL
- SA (MIC) (S. aureus 27660): 0.78 µg/mL
- CA (Candida IC50) (C. albicans GDH2346; vegetative cells): 2.11 µg/mL
SMILES: NCCCn1c2cc(-c3ccc(CCN)c(CCN)c3)ccc2c2ccc(-c3ccc(CCN)c(CCN)c3)cc21 [Compound 159]
- pEC50 (mouse 3T3 fibroblasts): 4.21
- pEC50 [2]: 4.19
